{"source": "patent EP1710301A1", "about": "“L-gulonolactone dehydrogenase of Mycobacterium tuberculosis” (priority 2005, dated 2006)", "key": {"[1]": {"molecular_target": "recombinant GST-tagged L-gulono-1,4-lactone dehydrogenase of Mycobacterium tuberculosis (Mycobacterium tuberculosis, UniProt P9WIT3)", "sequence (P9WIT3 whole entry)": "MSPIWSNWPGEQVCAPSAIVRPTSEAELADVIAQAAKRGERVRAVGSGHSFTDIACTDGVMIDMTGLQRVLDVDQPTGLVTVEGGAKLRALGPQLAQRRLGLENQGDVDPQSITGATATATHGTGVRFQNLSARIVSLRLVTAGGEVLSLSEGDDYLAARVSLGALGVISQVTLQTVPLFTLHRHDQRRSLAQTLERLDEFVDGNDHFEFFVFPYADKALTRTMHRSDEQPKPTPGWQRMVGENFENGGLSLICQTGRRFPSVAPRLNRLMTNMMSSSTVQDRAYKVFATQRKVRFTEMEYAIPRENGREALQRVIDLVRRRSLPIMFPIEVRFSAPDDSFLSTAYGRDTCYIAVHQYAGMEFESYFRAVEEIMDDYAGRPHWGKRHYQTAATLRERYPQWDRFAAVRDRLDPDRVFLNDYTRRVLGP", "details": "for Enzyme specific activity: substrate 50 mM"}, "[2]": {"molecular_target": "plant L-galactono-1,4-lactone dehydrogenase (Brassica oleracea, UniProt O47881)", "sequence (O47881 92-600)": "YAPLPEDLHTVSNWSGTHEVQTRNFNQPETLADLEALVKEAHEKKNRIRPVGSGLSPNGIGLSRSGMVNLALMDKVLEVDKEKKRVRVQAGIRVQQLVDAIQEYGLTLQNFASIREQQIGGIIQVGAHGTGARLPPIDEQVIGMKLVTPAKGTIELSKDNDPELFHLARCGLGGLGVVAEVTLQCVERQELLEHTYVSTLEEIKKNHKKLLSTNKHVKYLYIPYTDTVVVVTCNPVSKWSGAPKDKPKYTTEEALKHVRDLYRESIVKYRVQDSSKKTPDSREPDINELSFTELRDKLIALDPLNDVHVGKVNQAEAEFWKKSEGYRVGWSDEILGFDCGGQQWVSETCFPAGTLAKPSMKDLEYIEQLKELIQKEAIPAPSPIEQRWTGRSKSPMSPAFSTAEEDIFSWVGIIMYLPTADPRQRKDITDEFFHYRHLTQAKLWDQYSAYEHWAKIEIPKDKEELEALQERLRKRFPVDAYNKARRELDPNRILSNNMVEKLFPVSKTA", "details": "read-out: Km for the L-galactono-1,4-lactone substrate; value reported by Östergaard et al., 1997; cited from earlier work"}, "[3]": {"test_system": "O=C1O[C@H]([C@@H](O)CO)[C@H](O)[C@@H]1O", "experiment": "purified protein, by the assay type"}}, "note": "Read-outs that look alike come from different tables or passages of the source.", "data": [{"compound": "[Ca+2].[Cl-].[Cl-]", "note": "[CaCl2]", "values": [{"measurement": "Relative activity", "setting": "[1]; effector 1 mM", "value": "91 % of control"}]}, {"compound": "O=C1O[C@H]([C@@H](O)CO)[C@@H](O)[C@@H]1O", "note": "[L-galactono-1,4-lactone]", "values": [{"measurement": "Enzyme specific activity", "setting": "[1]", "value": 0, "unit": "mU/mg ofprotein"}, {"measurement": "activity towards substrate (in words)", "setting": "[1]; substrate specificity", "value": "no activity"}, {"measurement": "Km", "setting": "[2]", "value": 3.3, "unit": "mM"}]}, {"compound": "[Cl-].[Cl-].[Zn+2]", "note": "[ZnCl2]", "values": [{"measurement": "Relative activity", "setting": "[1]; effector 1 mM", "value": "0 % of control"}, {"measurement": "effect on the enzyme activity (in words)", "setting": "[1]; effectors, EDTA 1 mM", "value": "Inhibition"}]}, {"compound": "O=C[C@@H](O)[C@H](O)[C@H](O)CO", "note": "[D-arabinose]", "values": [{"measurement": "Enzyme specific activity", "setting": "[1]", "value": 0, "unit": "mU/mg ofprotein"}]}, {"compound": "O=C[C@H](O)[C@@H](O)[C@H](O)CO", "note": "[D-xylose]", "values": [{"measurement": "Enzyme specific activity", "setting": "[1]", "value": 0, "unit": "mU/mg ofprotein"}]}, {"compound": "O=C(O)CN(CCN(CC(=O)O)CC(=O)O)CC(=O)O", "note": "[EDTA]", "values": [{"measurement": "Relative activity", "setting": "[1]", "value": "0 % of control"}, {"measurement": "effect on the enzyme activity (in words)", "setting": "[1]", "value": "complete inhibition"}]}, {"compound": "[Cl][Mn][Cl]", "note": "[MnCl2]", "values": [{"measurement": "Relative activity", "setting": "[1]; effector 1 mM", "value": "79 % of control"}]}, {"compound": "CCN1C(=O)C=CC1=O", "note": "[N-ethylmaleimide]", "values": [{"measurement": "Relative activity", "setting": "[1]; effector 1 mM", "value": "0 % of control"}, {"measurement": "effect on the enzyme activity (in words)", "setting": "[1]; effectors, EDTA 1 mM", "value": "Inhibition"}]}, {"compound": "O=C[C@H](O)[C@H]1OC(=O)[C@@H](O)[C@H]1O", "note": "[D-glucurono-3,6-lactone]", "values": [{"measurement": "Enzyme specific activity", "setting": "[1]", "value": 0, "unit": "mU/mg ofprotein"}]}, {"compound": "recombinant GST-tagged L-gulono-1,4-lactone dehydrogenase of Mycobacterium tuberculosis (Mycobacterium tuberculosis H37Rv)", "values": [{"measurement": "Km", "setting": "[3]", "value": 5, "unit": "mM mM"}, {"measurement": "Vmax", "setting": "[3]", "value": "2.44µmol·h^-1mg^-1 µmol·h^-1mg^-1"}, {"measurement": "kcat", "setting": "[3]", "value": 0.033, "unit": "s^-1 s^-1"}, {"measurement": "kcat/Km", "setting": "[3]", "value": 0.0065, "unit": "s^-1·mM^-1 s^-1·mM^-1"}]}, {"compound": "Cc1cc2nc3c(=O)[nH]c(=O)nc-3n(C[C@H](O)[C@H](O)[C@H](O)COP(=O)(O)OP(=O)(O)OC[C@H]3O[C@@H](n4cnc5c(N)ncnc54)[C@H](O)[C@@H]3O)c2cc1C", "note": "[FAD]", "values": [{"measurement": "Relative activity", "setting": "[1]; effector 100 µM", "value": "94 % of control"}, {"measurement": "effect on the enzyme activity (in words)", "setting": "[1]; effectors, EDTA 1 mM", "value": "not affected"}]}, {"compound": "[Cl][Cu][Cl]", "note": "[CuCl2]", "values": [{"measurement": "Relative activity", "setting": "[1]; effector 1 mM", "value": "0 % of control"}, {"measurement": "effect on the enzyme activity (in words)", "setting": "[1]; effectors, EDTA 1 mM", "value": "Inhibition"}]}, {"compound": "O=C1O[C@H]([C@@H](O)CO)[C@H](O)[C@@H]1O", "note": "[L-gulono-1,4-lactone]", "values": [{"measurement": "Enzyme specific activity", "setting": "[1]", "value": 66.7, "unit": "mU/mg ofprotein"}]}, {"compound": "[Cl-].[Cl-].[Mg+2]", "note": "[MgCl2]", "values": [{"measurement": "Relative activity", "setting": "[1]; effector 1 mM", "value": "98 % of control"}]}, {"compound": "O=C[C@H](O)[C@@H](O)[C@H](O)[C@H](O)C(=O)O", "note": "[D-glucuronic acid]", "values": [{"measurement": "Enzyme specific activity", "setting": "[1]", "value": 0, "unit": "mU/mg ofprotein"}]}]}
